In assay [1] the test system is Human umbilical vein endothelial cells (HUVEC). The experiment in a line: Nitric oxide production by HUVEC (nitrite in culture medium, Griess reaction). As to conditions: for production of nitric oxide by HUVEC (in words): 48 hour incubation. The format is cell-based. As to the method: The culture medium used was Medium 200 (Cascade Biologics Inc.) supplemented with Low Serum Growth Supplement (Cascade Biologics Inc.) and 20% fetal calf serum (DAP).
The cocoa procyanidins evaluated were the epicatechin monomer, the dimer, the trimer, the tetramer, the pentamer, and the heptamer. The nitrite content of cocoa procyanidins were evaluated. At the maximal concentration used (100 ? g/ml), no nitrite was detected.
Human umbilical vein endothelial cells (HUVEC) were purchased at primary culture stage from Cascade Biologics Inc. (Portland). Cells were cultured in Medium supplemented with Low Serum Growth Supplement (LSGS) and 20% Fetal Calf Serum (FCS) in 75 cm^2 flasks. The cells were seeded for a week following treatment with trypsin-EDTA (2 ml/flask) at 37° C. under 5% CO2 atmosphere. Trypsin was neutralized upon addition of 3 ml. FCS.
The cell suspension was centrifuged for 10 min. at 1200 rpm and the cell pellet was resuspended in the culture medium described above.
Nitric oxide synthase activity was assessed by measuring the nitrite concentration in the culture medium. HUVEC were used between passage 2 to 13. Cells were cultured in 24-well culture plates at the concentration of 5×10^5 cells ml in Medium 200 containing LSGS (300 μl per well), and 20% CS. After a 24 hour to 48 hour incubation period at 37° C. under a 5% CO2 atmosphere, the cells were used confluent (2.5×10^6 cells). Medium was removed and fresh was added.
Cocoa procyanidin monomer and oligomers were added to the culture medium at 100 μg/ml, 10 μg/ml or 1 μg/ml (final concentration). Controls consisted of cells cultured without the procyanidins. Reference compounds included acetylcholine, ionomycin (NO synthase stimulator via calcium entry), lipopolysaccharide (NO synthase inductor), and N-methyl L-arginine acetate (inhibitor of NO synthase). The reference compounds were used in order to evidence nitrite production from endothelial NO synthesis.
NO production was estimated by measurement of nitrite (NO2) concentration in culture supernatants according to the Griess reaction. Briefly, 50 μl of conditional medium were incubated with 150 μl of Griess reagent (1% sulfanilamide in 30% acetic acid/0.1% N-(1-naphtyl)-ethylenediamine dihydrochloride in 60% acetic acid) at room temperature for 2 min. The absorbance at 540 nm was determined in a Labsystems MCC/340 multiskan. Nitrite concentration was determined by using sodium nitrite as standard and analyzed using ΔSOFT 2.12 software. The cell-free medium and 100 μg/ml of procyanidins contained no detectable nitrite concentrations.
Raw Data^1: Showing the Effect of Cocoa Procyanidins On Nitric Oxide Production by HUVEC ^1Results are expressed as μmol nitrite/10^6 cells/48 h

The subject of assay [2] is Aortic rings from New Zealand white rabbits. The experiment in a line: Endothelium dependent relaxation of pre-contracted rabbit aortic rings in organ baths. As to the method: Aortic rings from New Zealand white rabbits were set up in 20 ml organ baths. […] The cocoa procyanidins tested were the monomer, dimer, trimer, tetramer, pentamer, hexamer.
Rings were incubated for 30′ with these cocoa procyanidins (10^−5M) and re-tested with Ach and cocoa procyanidins (10^−7 to 10^−4). Incubation of the tissue with these cocoa procyanadin(s) attenuated EDR evoked by both the cocoa procyanidins and Ach acutely. The maximum relaxation to Ach pre-incubation, 49±5%; post pentamer incubation, 2±1.4%; post combo 2 incubation, 0.8±0.8%: to pentamer pre-incubation, 46.5±4.5%; post incubation, 6.8±3.2%: to combo 2 pre-incubation, 54.3±7%; post incubation, 1.7±1.1%, n=5).

In assay [3] the test system is arterial blood pressure of anesthetized guinea-pigs. The experiment in a line: Arterial blood pressure of anesthetized guinea-pigs after intravenous injection. The class given is in vivo. As to conditions: for Hypertension (%)* Exp 1 / Hypertension (%)* Exp 2 / Hypertension (%)* Exp 3 / Hypertension (%)* Exp 4 / Hypertension (%)* Exp 5 / Hypertension (%)* Exp 6: % of control mean arterial blood pressure. As to the method:
Guinea-pigs (around 400 g body weight, male and female) were anesthetized upon injection of 40 mg/kg sodium pentobarbital. The carotid artery was canulated for monitoring of the arterial blood pressure through a Gould pressure transducer (Model P500). Each of the six cocoa procyanidins, at concentrations of 1, 3, 10, and 25 mg/kg, was injected intravenously through the jugular vein. Alterations in blood pressure were recorded on a polygraph.
No marked effect of the vehicle containing DMSO was noted when the dose of 25 mg/kg of the cocoa procyanidin was used (15±5%).
The effects of administering of 1, 3, 10, or 25 mg/kg cocoa procyanidins on arterial blood pressure of anesthetized guinea-pigs was investigated. Upon intravenous injection, the procyanidins monomer and dimer evoked a decrease in blood pressure of about 20%, i.e., not markedly different from injection of solvent alone (15±5%, n=5). […] The rank of potency of the various cocoa procyanidins, considering the highest dose used, was as follows: hexamer=tetramer>pentamer>trimer.

[4] abbreviates: preliminary experiments, single dose 10^−5 M, rings pre-contracted with norepinephine 10^−5 M.

Entries after “also recorded” stand apart in the source; their conditions may differ.

As for `CC(=O)OCC[N+](C)(C)C` [Acetylcholine, acetylcholine], in assay [1] (Acetylcholine 10^−5 M), the “Nitric Oxide Production by HUVEC, Exp. 1” value is given as 2.5 μmol nitrite/10^6 cells/48 h; the “Nitric Oxide Production by HUVEC, Exp. 2” value was 2.6 μmol nitrite/10^6 cells/48 h; the “Nitric Oxide Production by HUVEC, Exp. 3” value was 2.8 μmol nitrite/10^6 cells/48 h; the “Nitric Oxide Production by HUVEC, Mean” value was 2.6 μmol nitrite/10^6 cells/48 h. In addition, in assay [2] (acute exposure, dose 10^−5 M), the “% Relaxation” value was 49 ± 5.1%. Besides, in assay [2] (acute exposure, dose 10^−6 M), the “% Relaxation” value was 42.2 ± 4.2%. The “% Relaxation” value in assay [2] (acute exposure, dose 10^−7 M) is reported as 15.2 ± 2.6%. Also, in assay [2] (pre-incubation, n=5), the “maximum relaxation to Ach” value was 49±5%. Also, in assay [2] (setting [4]), the “% Relaxation” value is given as 68%.

Consider `C[C@H](CCC(=O)O)C[C@H](C)C[C@H](C)C(=O)/C=C(\O)[C@H](C)C[C@H](C)C/C=C/[C@@H](C)[C@@H](O)[C@@H](C)[C@@H](O)C[C@@H]1CC[C@@](C)([C@H]2CC[C@@](C)([C@@H](C)O)O2)O1` [Ionomycin, ionomycin, reference compound], for which the “production of nitric oxide by HUVEC (in words)” value in assay [1] (1 μM) was “marked production of nitric oxide”. Moreover, in assay [1] (Ionomycin 1 μM), the “Nitric Oxide Production by HUVEC, Exp. 1” value is on record as 7.8 μmol nitrite/10^6 cells/48 h; the “Nitric Oxide Production by HUVEC, Exp. 2” value is recorded as 6.3 μmol nitrite/10^6 cells/48 h; the “Nitric Oxide Production by HUVEC, Exp. 3” value is on record as 5.4 μmol nitrite/10^6 cells/48 h; the “Nitric Oxide Production by HUVEC, Mean” value is 6.5 μmol nitrite/10^6 cells/48 h.

For `CC(=O)O.CN[C@@H](CCCNC(=N)N)C(=O)O` [LNMA, N-methyl L-arginine acetate, reference compound], the “production of nitric oxide by HUVEC evoked by ionomycin and lipolysaccharide (in words)” value in assay [1] (N-methyl L-arginine added to the incubation medium) was “blocked”.

Take `Oc1cc(O)c2c(c1)O[C@H](c1ccc(O)c(O)c1)[C@H](O)C2` [Monomer, epicatechin]: the “production of NO from HUVEC, dose dependence (in words)” value in assay [1] (1, 10, 100 μg/ml) is on record as “marked production but only at 100 μg/ml concentration”. Moreover, in assay [1] (cocoa procyanidin 1 μg/ml), the “Nitric Oxide Production by HUVEC, Exp. 1” value is reported as 2.3 μmol nitrite/10^6 cells/48 h; the “Nitric Oxide Production by HUVEC, Exp. 2” value is listed as 2.5 μmol nitrite/10^6 cells/48 h; the “Nitric Oxide Production by HUVEC, Exp. 3” value is given as 2.6 μmol nitrite/10^6 cells/48 h; the “Nitric Oxide Production by HUVEC, Mean” value is on record as 2.5 μmol nitrite/10^6 cells/48 h. In assay [1] (cocoa procyanidin 10 μg/ml), the “Nitric Oxide Production by HUVEC, Exp. 1” value is recorded as 2.7 μmol nitrite/10^6 cells/48 h; the “Nitric Oxide Production by HUVEC, Exp. 2” value is 2.8 μmol nitrite/10^6 cells/48 h; the “Nitric Oxide Production by HUVEC, Exp. 3” value was 2.6 μmol nitrite/10^6 cells/48 h; the “Nitric Oxide Production by HUVEC, Mean” value was 2.7 μmol nitrite/10^6 cells/48 h. Besides, in assay [1] (cocoa procyanidin 100 μg/ml), the “Nitric Oxide Production by HUVEC, Exp. 1” value is recorded as 5.4 μmol nitrite/10^6 cells/48 h; the “Nitric Oxide Production by HUVEC, Exp. 2” value is reported as 5.9 μmol nitrite/10^6 cells/48 h; the “Nitric Oxide Production by HUVEC, Exp. 3” value is 5.7 μmol nitrite/10^6 cells/48 h; the “Nitric Oxide Production by HUVEC, Mean” value is given as 5.7 μmol nitrite/10^6 cells/48 h. In assay [1] (highest dose used, 100 μg/ml), the “potency of the various procyanidins, NO production (rank)” value is recorded as “dimer>trimer>heptamer=pentmer=tetramer>monomer; also recorded: dimer>trimer>hexamer=pentamer=tetramer>monomer”. Besides, in assay [3] (1 mg/kg intravenously), the “Hypertension (%)* Exp 1” value turned out to be 55.32%, the “Hypertension (%)* Exp 2” value was 70.31%, the “Hypertension (%)* Exp 3” value was found to be 70.27% and the “Hypertension (%)* Exp 4” value was 75.99%. For the same compound, in assay [3] (1 mg/kg intravenously), the “Hypertension (%)* Exp 5” value is on record as 71.92% and the “Hypertension (%)* Exp 6” value came out at 77.97%. In addition, in assay [3] (3 mg/kg intravenously), the “Hypertension (%)* Exp 1” value was determined as 62.99%, the “Hypertension (%)* Exp 2” value is 72.62%, the “Hypertension (%)* Exp 3” value is listed as 74.59% and the “Hypertension (%)* Exp 4” value is reported as 73.33%. For the same compound, in assay [3] (3 mg/kg intravenously), the “Hypertension (%)* Exp 5” value was determined as 76.04% and the “Hypertension (%)* Exp 6” value is 70.44%. Further, in assay [3] (10 mg/kg intravenously), the “Hypertension (%)* Exp 1” value was found to be 58.95%, the “Hypertension (%)* Exp 2” value stood at 66.53%, the “Hypertension (%)* Exp 3” value was determined as 70.06% and the “Hypertension (%)* Exp 4” value is listed as 65.79%. In addition, in assay [3] (10 mg/kg intravenously), the “Hypertension (%)* Exp 5” value is recorded as 70.69% and the “Hypertension (%)* Exp 6” value is on record as 66.21%. Further, in assay [3] (25 mg/kg intravenously), the “Hypertension (%)* Exp 1” value came out at 46.93%, the “Hypertension (%)* Exp 2” value stood at 55.14%, the “Hypertension (%)* Exp 3” value worked out at 63.08% and the “Hypertension (%)* Exp 4” value amounted to 53.95%. Besides, in assay [3] (25 mg/kg intravenously), the “Hypertension (%)* Exp 5” value worked out at 65.91% and the “Hypertension (%)* Exp 6” value worked out at 58.66%. Moreover, in assay [3] (considering the highest dose used), the “rank of potency of the various cocoa procyanidins, hypotension” value is “hexamer=tetramer>pentamer>trimer>dimer=monomer”. In assay [3] (intravenous injection, solvent alone 15±5%), the “decrease in blood pressure” value is reported as “about 20%”. Moreover, in assay [2] (setting [4]), the “% Relaxation” value is 0%.

With “lipopolysaccharide [LPS, reference compound]”, the “production of nitric oxide by HUVEC (in words)” value in assay [1] (100 ng/ml) is “marked production of nitric oxide”. Further, the “Nitric Oxide Production by HUVEC, Mean” value in assay [1] (LPS 100 mg/ml) is 14.4 μmol nitrite/10^6 cells/48 h. Besides, in assay [1] (LPS 100), the “Nitric Oxide Production by HUVEC, Exp. 1” value was 15.6 μmol nitrite/10^6 cells/48 h; the “Nitric Oxide Production by HUVEC, Exp. 2” value is reported as 14.3 μmol nitrite/10^6 cells/48 h; the “Nitric Oxide Production by HUVEC, Exp. 3” value is given as 13.2 μmol nitrite/10^6 cells/48 h.

Values taken from patent US8715749B2, “Products containing polyphenol(s) and L-arginine” (priority 1998, dated 2014).
